This note sets out measurements from patent US20260365653A1, “IRREVERSIBLE MUTEGFR INHIBITORS” (Bayer Aktiengesellschaft, priority 2022, published 2026).

Assay [1] deals with T1, mutEGFR (D770_N771insSVD) (Homo sapiens, UniProt P00533, DUP768-770).
T1 construct: GST-EGFR #3 (SVD between D770 and N771); made in house; host or cells: Sf9 insect cells (baculovirus)
Briefly: Exon20-Mutant-EGFR (D770_N771insSVD) kinase assay (TR-FRET). In kind it is biochemical.

Assay [2] deals with T2, mutEGFR (D770_N771insNPG, T790) (Homo sapiens, UniProt P00533, INS770NPG/T790M).
T2 construct: exact insNPG construct not described; in-house EGFR proteins were N-terminal GST fusions from baculovirus/insect cells (borders R669-A1210 given only for WT, insSVD, insASV)
T2 sequence (P00533 with tags, fused parts or gaps INS770NPG/T790M limits assumed): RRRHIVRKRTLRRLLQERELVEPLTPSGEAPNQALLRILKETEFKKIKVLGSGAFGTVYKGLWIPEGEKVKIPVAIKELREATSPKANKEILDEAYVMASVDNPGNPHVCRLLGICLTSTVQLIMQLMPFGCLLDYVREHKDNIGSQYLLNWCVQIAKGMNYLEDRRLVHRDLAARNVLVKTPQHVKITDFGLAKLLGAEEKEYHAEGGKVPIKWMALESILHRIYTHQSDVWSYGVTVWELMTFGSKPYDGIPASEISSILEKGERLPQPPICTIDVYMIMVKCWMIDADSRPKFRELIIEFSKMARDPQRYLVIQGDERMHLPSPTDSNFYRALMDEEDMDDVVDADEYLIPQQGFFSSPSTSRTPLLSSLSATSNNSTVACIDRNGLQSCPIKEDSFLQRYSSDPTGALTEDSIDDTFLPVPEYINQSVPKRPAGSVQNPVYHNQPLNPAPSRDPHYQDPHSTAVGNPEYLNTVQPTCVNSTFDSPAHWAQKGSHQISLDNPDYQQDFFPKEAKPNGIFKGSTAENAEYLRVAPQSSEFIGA
Description: mutEGFR (D770_N771insNPG, T790) kinase assay. The format is biochemical. The note with it: Table 2a, D770_N771insNPG. An excerpt: The different EGFR proteins used in the biochemical kinase activity inhibition assays were generated inhouse by expression in insect cells using Baculo Virus system and subsequent purification as described in the following paragraphs.
The cDNAs encoding the various protein sequences from human EGFR human (P00533) were optimized for expression in eukaryotic cells and synthesized by the GeneArt Technology at Life Technologies.

The next assay relates to BA/F3 (insSVD) cells. Description: Ba/F3-EGFR-insSVD cell survival assay (Cell Titer-Glo). In kind it is cell-based. The conditions noted are these: Table 3a, cell survival, Cell Titer-Glo, with 10 ng/ml EGF, without IL-3. Put shortly: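 Ba/F3 cells stably expressing retroviral EGFR-insSVD or insSVD T790M, grown without IL-3 on 10 ng/ml EGF, 4000 cells/well. Compound pinned in, 48 h at 37° C. Viability by CellTiter-Glo luminescence.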
For orientation: In ATP-based viability assays light output follows the ATP content of the culture.

[3] abbreviates: mutEGFR (D770_N771insSVD) kinase assay IC50, Table 2a, D770_N771insSVD, 2 mM ATP.

Values joined by “and” are separate entries in the source; they are usually repeats but may differ in a detail not shown here. Identical values can stand only once.

T1 sequence (P00533 with tags, fused parts or gaps DUP768-770): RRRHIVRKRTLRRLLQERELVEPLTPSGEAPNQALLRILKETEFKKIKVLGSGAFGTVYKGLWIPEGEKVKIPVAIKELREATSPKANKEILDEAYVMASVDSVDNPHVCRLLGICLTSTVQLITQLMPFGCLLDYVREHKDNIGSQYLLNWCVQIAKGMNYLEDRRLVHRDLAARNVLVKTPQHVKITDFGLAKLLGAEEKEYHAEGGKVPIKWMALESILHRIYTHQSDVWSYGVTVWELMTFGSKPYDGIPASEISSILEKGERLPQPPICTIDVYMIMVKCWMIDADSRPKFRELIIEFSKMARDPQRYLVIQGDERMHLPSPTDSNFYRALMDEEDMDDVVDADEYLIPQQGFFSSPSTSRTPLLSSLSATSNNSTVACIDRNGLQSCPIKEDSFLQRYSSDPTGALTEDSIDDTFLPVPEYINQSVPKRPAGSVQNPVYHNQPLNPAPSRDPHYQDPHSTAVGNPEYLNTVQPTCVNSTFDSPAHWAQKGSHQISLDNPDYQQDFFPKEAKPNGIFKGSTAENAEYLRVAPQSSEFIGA

A word on the IC50: it is the point on the concentration scale where inhibition reaches its midpoint. As for `C[C@H]1Cn2nc(-c3ccc(Cl)cc3)c(-c3ccncc3)c2CN1C(=O)/C=C/CN(C)C` [Example 245, (2E)-1-[(6S)-2-(4-chlorophenyl)-6-methyl-3-(pyridin-4-yl)-6,7-dihydropyrazolo[1,5-a]pyrazin-5(4H)-yl]-4-(dimethylamino)but-2-en-1-one], the IC50 in assay [1] (setting [3]) worked out at 0.113 nM; in assay [2], 0.262 nM; with BA/F3 (insSVD) cells (Mus musculus, BaF3, 48 h), 11.9 nM.
The like results for `CN(C)C/C=C/C(=O)N1CCn2nc(-c3ccc(C#N)cc3)c(-c3ccncc3)c2C1` [Example 33, 4-{5-[(2E)-4-(dimethylamino)but-2-enoyl]-3-(pyridin-4-yl)-4,5,6,7-tetrahydropyrazolo[1,5-a]pyrazin-2-yl}benzonitrile] were, in that order, 8.35 nM, 67 nM and 1840 nM.
The like results for `CN(C)C/C=C/C(=O)N1Cc2c(-c3ccncc3)c(-c3ccc(F)cc3)nn2C(CCO)C1` (racemic) [Example 219, rac-(R,E)-4-(dimethylamino)-1-(2-(4-fluorophenyl)-7-(2-hydroxyethyl)-3-(pyridin-4-yl)-6,7-dihydropyrazolo[1,5-a]pyrazin-5(4H)-yl) but-2-en-1-one] were, in that order, 0.715 nM, 1.21 nM and 308 nM.
The like results for `C=CC(=O)N1CCn2nc(-c3ccc(C)cc3F)c(-c3ccncc3)c2C1` [Example 110, 1-[2-(2-fluoro-4-methylphenyl)-3-(pyridin-4-yl)-6,7-dihydropyrazolo[1,5-a]pyrazin-5(4H)-yl]prop-2-en-1-one] were, in that order, 0.75 nM, 1.93 nM and 33.2 nM.
As to `O=C(C#CCN1CCOCC1)N1CCn2nc(-c3ccc(Cl)cc3F)c(-c3ccncc3)c2C1` [Example 85, 1-[2-(4-chloro-2-fluorophenyl)-3-(pyridin-4-yl)-6,7-dihydropyrazolo[1,5-a]pyrazin-5(4H)-yl]-4-(morpholin-4-yl) but-2-yn-1-one], the IC50 in assay [1] (setting [3]) turned out to be 0.731 nM; in assay [2], 2.43 nM; in the assay with BA/F3 (insSVD) cells (Mus musculus, BaF3, 48 h), 34.6 nM.
As for `CO[C@H]1CCN(C/C=C/C(=O)N2CCn3nc(-c4ccc(F)cc4)c(-c4ccncc4)c3C2)C1` [Example 83, (2E)-1-[2-(4-fluorophenyl)-3-(pyridin-4-yl)-6,7-dihydropyrazolo[1,5-a]pyrazin-5(4H)-yl]-4-[(3S)-3-methoxypyrrolidin-1-yl]but-2-en-1-one], the IC50 turned out to be 0.976 nM in assay [1] (setting [3]); 3.53 nM in assay [2]; 132 nM in the assay on BA/F3 (insSVD) cells (Mus musculus, BaF3, 48 h).
With `CN(C)C/C=C/C(=O)N1CCn2nc(-c3cc(Cl)ccc3F)c(-c3ccncc3)c2C1` [Example 149, (2E)-1-[2-(5-chloro-2-fluorophenyl)-3-(pyridin-4-yl)-6,7-dihydropyrazolo[1,5-a]pyrazin-5(4H)-yl]-4-(dimethylamino)but-2-en-1-one], the half-maximal inhibitory concentration (IC50) in assay [1] (setting [3]) is 1.54 nM; in assay [2] it was 2.59 nM; in the assay with BA/F3 (insSVD) cells (Mus musculus, BaF3, 48 h), 200 nM.
Regarding `C=CC(=O)N1CCn2nc(-c3ccc(Cl)cc3F)c(-c3ccncc3)c2C1C` (single isomer, unassigned; isomer 2) [Example 279, 1-[2-(4-chloro-2-fluorophenyl)-4-methyl-3-(pyridin-4-yl)-6,7-dihydropyrazolo[1,5-a]pyrazin-5(4H)-yl]prop-2-en-1-one (isomer 2)], the IC50 in assay [1] (setting [3]) was 50.6 nM; in assay [2], 62.2 nM; with BA/F3 (insSVD) cells (48 h), 429 nM.
Consider `C=CC(=O)N1CCn2nc(-c3ccc(OC)c(F)c3)c(-c3ccncc3)c2C1` [Example 42, 1-[2-(3-fluoro-4-methoxyphenyl)-3-(pyridin-4-yl)-6,7-dihydropyrazolo[1,5-a]pyrazin-5(4H)-yl]prop-2-en-1-one], for which the IC50 in assay [1] (setting [3]) turned out to be 1.01 nM; in assay [2], 6.31 nM; with BA/F3 (insSVD) cells (Mus musculus, BaF3, 48 h) it was 53.6 nM.
The corresponding values for `C=CC(=O)N1Cc2c(-c3ccncc3)c(-c3ccc(F)cc3)nn2C(C(N)=O)C1` (racemic) [Example 204, (7RS)-5-acryloyl-2-(4-fluorophenyl)-3-(pyridin-4-yl)-4,5,6,7-tetrahydropyrazolo[1,5-a]pyrazine-7-carboxamide] are 4.61 nM, 17.2 nM and 134 nM.
With `C=CC(=O)N1CCn2nc(-c3cccc(C#N)c3F)c(-c3ccncc3)c2C1` [Example 120, 2-fluoro-3-[5-(prop-2-enoyl)-3-(pyridin-4-yl)-4,5,6,7-tetrahydropyrazolo[1,5-a]pyrazin-2-yl]benzonitrile], the IC50 in assay [1] (setting [3]) amounted to 50.5 nM; in assay [2], 50.3 nM; with BA/F3 (insSVD) cells (Mus musculus, BaF3, 48 h), 933 nM.
The like results for `O=C(/C=C/CN1CCOCC1)N1CCn2nc(-c3ccc(Cl)cc3)c(-c3ccncc3)c2C1` [Example 165, (E)-1-(2-(4-chlorophenyl)-3-(pyridin-4-yl)-6,7-dihydropyrazolo[1,5-a]pyrazin-5(4H)-yl)-4-morpholinobut-2-en-1-one] were, in that order, 0.631 nM, 2.43 nM and 107 nM.
The corresponding values for `C=CC(=O)N1CCn2nc(-c3ccc(C)cc3)c(-c3ccncc3)c2C1` [Example 138, 1-[2-(4-methylphenyl)-3-(pyridin-4-yl)-6,7-dihydropyrazolo[1,5-a]pyrazin-5(4H)-yl]prop-2-en-1-one] are 0.981 nM, 2.93 nM and 23.2 nM.
The like results for `C=CC(=O)N1Cc2c(-c3ccnc4[nH]cc(C)c34)c(-c3ccc(C(F)(F)F)cc3)nn2C[C@@H]1C` [Example 248, 1-[(6S)-6-methyl-3-(3-methyl-1H-pyrrolo[2,3-b]pyridin-4-yl)-2-[4-(trifluoromethyl)phenyl]-6,7-dihydropyrazolo[1,5-a]pyrazin-5(4H)-yl]prop-2-en-1-one] were, in that order, 78.1 nM, 604 nM and 59.4 nM.
As to `C=C(C)C(=O)N1CCn2nc(-c3ccc(F)cc3)c(-c3ccncc3)c2C1` [Example 24, 1-[2-(4-fluorophenyl)-3-(pyridin-4-yl)-6,7-dihydropyrazolo[1,5-a]pyrazin-5(4H)-yl]-2-methylprop-2-en-1-one], the IC50 in assay [1] (setting [3]) is 1150 nM; in assay [1] (mutEGFR (D770_N771insSVD) kinase assay IC50, Table 2b (from US Priority Patent Application), mutEGFR D770_N771insSVD) it was 1150 nM; in assay [2] it was 14600 nM and > 20000 nM; with BA/F3 (insSVD) cells (Mus musculus, BaF3, 48 h), 9980 nM.
Regarding `C=CC(=O)N1Cc2c(-c3ccncc3)c(-c3ccc4sccc4c3)nn2C[C@@H]1C` [Example 276, 1-[(6S)-2-(1-benzothiophen-5-yl)-6-methyl-3-(pyridin-4-yl)-6,7-dihydropyrazolo[1,5-a]pyrazin-5(4H)-yl]prop-2-en-1-one], the IC50 came to 0.0909 nM in assay [1] (setting [3]); 0.157 nM in assay [2]; 6.22 nM in the assay with BA/F3 (insSVD) cells (Mus musculus, BaF3, 48 h).
`C=CC(=O)N1Cc2c(-c3ccncc3)c(-c3ccc(Cl)cc3F)nn2C(C)C1` (single isomer, unassigned; isomer 1) [Example 282, 1-[2-(4-chloro-2-fluorophenyl)-7-methyl-3-(pyridin-4-yl)-6,7-dihydropyrazolo[1,5-a]pyrazin-5(4H)-yl]prop-2-en-1-one (isomer 1)]: the IC50 in assay [1] (setting [3]) is 0.117 nM; in assay [2], 0.282 nM; in the assay with BA/F3 (insSVD) cells (Mus musculus, BaF3, 48 h), 6.15 nM.
Take `CN(C)C/C=C/C(=O)N1CCn2nc(-c3ccc(Cl)c(F)c3)c(-c3ccncc3)c2C1` [Example 25, (2E)-1-[2-(4-chloro-3-fluorophenyl)-3-(pyridin-4-yl)-6,7-dihydropyrazolo[1,5-a]pyrazin-5(4H)-yl]-4-(dimethylamino)but-2-en-1-one]: the IC50 in assay [1] (setting [3]) is 0.6 nM; in assay [2] it was 2.12 nM; with BA/F3 (insSVD) cells (Mus musculus, BaF3, 48 h), 62.3 nM.
As for `Cc1c[nH]c2nccc(-c3c(-c4ccc(F)cc4)nn4c3C(C)N(C(=O)/C=C/CN(C)C)CC4)c12` (single isomer, unassigned; isomer 1) [Example 268, (E)-4-(dimethylamino)-1-(2-(4-fluorophenyl)-4-methyl-3-(3-methyl-1H-pyrrolo[2,3-b]pyridin-4-yl)-6,7-dihydropyrazolo[1,5-a]pyrazin-5(4H)-yl) but-2-en-1-one (isomer 1)], the IC50 in assay [1] (setting [3]) is 940 nM; in assay [2] it was 446 nM; in the assay with BA/F3 (insSVD) cells (48 h), 279 nM.
For the compound `C=CC(=O)N1Cc2c(-c3ccncc3)c(-c3ccc(F)cc3)nn2C(CCO)C1` (stereo not shown) [Example 223, 1-(2-(4-fluorophenyl)-7-(2-hydroxyethyl)-3-(pyridin-4-yl)-6,7-dihydropyrazolo[1,5-a]pyrazin-5(4H)-yl) prop-2-en-1-one], the IC50 in assay [1] (setting [3]) stood at 0.336 nM; in assay [2] it was 1.25 nM; in the assay with BA/F3 (insSVD) cells (Mus musculus, BaF3, 48 h), 18 nM.
The like results for `C=CC(=O)N1CCn2nc(-c3ccc(F)c4ccoc34)c(-c3ccncc3)c2C1` [Example 105, 1-[2-(4-fluoro-1-benzofuran-7-yl)-3-(pyridin-4-yl)-6,7-dihydropyrazolo[1,5-a]pyrazin-5(4H)-yl]prop-2-en-1-one] were, in that order, 1.48 nM, 1.57 nM and 233 nM.
